Test results as given in patent publication US20050013862A1, “Functional powders for oral delivery” (Vectura Limited, priority 2001, published 2005).

Assay: Twin Stage Impinger fine particle fraction
Format: physicochemical
Settings: glass, 12.8 mm jet
From the text: A Twin Stage Impinger Apparatus (glass with a 12.8 mm jet) was used to determine the fine particle fraction of the formulations of Examples 10, 11 (steps 1 & 2), 11 (step 1 only), 14, and 15, with the following results: […]

## COc1ccc2c(c1)c(CC(=O)O)c(C)n2C(=O)c1ccc(Cl)cc1 [Raw indomethacin (pulverized), indomethacin]
  Average % Fine Particle Fraction at 601/min (n = 5): 3.89%
